{"source": "patent US11647993B2", "about": "“Oral fluid collector” (Research Triangle Institute, priority 2017, dated 2023)", "key": {"[1]": {"details": "aqueous solution (cocaine); labile esters (heroin, 6-AM); cited from earlier work"}, "[2]": {"details": "two collection devices, cited from earlier work"}, "[3]": {"details": "tetrahydrate soluble in hot water; cited from earlier work"}, "[4]": {"assay": "Stability of BZE in matrices over pH", "assay_type": "physicochemical", "details": "most matrices, broad range of pH values", "source_text": "Based on the above discussion, the stabilization of parent cocaine in a matrix such as oral fluid, which contains esterases possibly derived from crevicular fluid, is challenging unless appropriate buffering at a pH where parent cocaine is stable is employed."}, "[5]": {"assay": "Stability of parent THC spiked into neat human oral fluid, with or without the reagent component", "assay_type": "physicochemical"}, "pH of greatest stability": {"assay": "pH of greatest stability", "details": "parent THC by itself"}, "[6]": {"details": "oral fluid, over 14 days, cited from earlier work"}}, "note": "Like-named read-outs stand apart in the source and are kept apart here.", "data": [{"compound": "CC(=O)Oc1ccc2c3c1O[C@H]1[C@@H](OC(C)=O)C=C[C@H]4[C@@H](C2)N(C)CC[C@@]341", "note": "[heroin, diacetylmorphine]", "values": [{"measurement": "pH of greatest stability / stabilization", "setting": "[1]", "result": "~5.0"}]}, {"compound": "COC(=O)[C@H]1[C@@H](OC(=O)c2ccccc2)C[C@@H]2CC[C@H]1N2C", "note": "[cocaine]", "values": [{"measurement": "pH of greatest stability / stabilization", "setting": "[1]", "result": "~5"}, {"measurement": "cocaine degraded to BZE", "setting": "[2]; within 48 hours", "result": 26, "unit": "%"}, {"measurement": "cocaine degraded to BZE", "setting": "[2]; within 72 hours", "result": 41, "unit": "%"}]}, {"compound": "CN1[C@H]2CC[C@@H]1[C@@H](C(=O)O)[C@@H](OC(=O)c1ccccc1)C2", "note": "[BZE, benzoylecgonine]", "values": [{"measurement": "water solubility", "setting": "[3]", "result": "considerable water solubility"}, {"measurement": "stability", "setting": "[4]", "result": "stable"}]}, {"compound": "CCCCCc1cc(O)c2c(c1)OC(C)(C)[C@@H]1CCC(C)=C[C@@H]21", "note": "[THC, Δ^9-tetrahydrocannabinol]", "values": [{"measurement": "loss of THC", "setting": "[5]", "result": "substantial loss"}, {"measurement": "pH at which most stable", "setting": "pH of greatest stability", "result": "~7.5"}, {"measurement": "losses of THC", "setting": "[6]; in the dark at room temperature", "result": 20, "unit": "%"}, {"measurement": "losses of THC", "setting": "[6]; under fluorescent lights", "result": "greater than 50%"}]}]}
